In patent publication US9497973B2, “Elasmobranch-repelling compounds, methods of use and devices” (priority 2005, dated 2016):
Counter-ions that a name gives are not always drawn.

Columns and labels:
[1] = system: young Lemon Sharks (Negaprion brevirostris); conditions: in vivo; cited from earlier work
[2] = system: blue sharks and great white sharks; conditions: squirted into the mouth; cited from earlier work
sharks [3] = conditions: cited from earlier work
sharks [4] = conditions: in vivo
[5] = system: several species of sharks; conditions: shark pens at Bimini, Bahamas; cited from earlier work
[6] = system: tiger sharks and other fish; conditions: in vivo; cited from earlier work
[7] = room temperature, heat; cited from earlier work
[8] = system: at least four species of sharks; conditions: cited from earlier work

CCCCCCCCCCCCOS(=O)(=O)[O-].[Li+] [LLS]
repelling captive Lemon Sharks, compared with pardaxin [1]: even more effective than pardaxin

CCCCCCCCCCCCOS(=O)(=O)[O-].[Na+] [SLS]
repelling captive Lemon Sharks, compared with pardaxin [1]: even more effective than pardaxin
repellency against blue sharks and great white sharks [2]: effective repellent
effectiveness in surrounding-cloud-mode dispersions (sharks [3]; in vivo): not effective

CCCCCCCCCCCCOS(=O)(=O)O [dodecyl sulfate]
meeting the Navy's potency requirement for a nondirectional surrounding-cloud type repellent (sharks [3]; requirement 100 parts per billion (0.1 ppm or 100 micrograms/Liter)): did not meet

copper acetate
effectiveness as a shark repellent (sharks [4]): ineffective
repelling or inhibiting feeding activities [5]: fails to repel or inhibit the feeding activities
efficacy against tiger sharks and other fish [6]: inefficacy

pardaxin
storage stability [7]: not stable for room temperature storage, and was heat-sensitive
effectiveness relative to the fresh secretion ([8]; freeze-dried form): 30%
time for which sharks were repelled ([8]; laboratory and open sea, at least four species): ≥ 10 h
